From patent US6329155A, “Methods of identifying agents which regulate release of amyloid precursor protein” (Massachusetts Institute of Technology, priority 1994, dated 2001) come the findings set out here.

For assay [1], the system named is mAChR-transfected 293 cell lines. The assay is described as follows: APP processing in mAChR-transfected 293 cell lines, subtype not stated (Western blot). Format: cell-based, human. Background: A western blot detects proteins with antibodies after separation by electrophoresis.
Assay [2] relates to serotonin receptor subtype 5HT2. Nature of the assay: APP derivative release by 3T3 fibroblasts transfected with serotonin receptor subtype 5HT2. It counts as cell-based. Particulars: 3T3 fibroblasts transfected with 5HT2; serum-deprived 24 hours.
Another assay concerns human m2 mAChR. Nature of the assay: APP release by human 293 cells transfected with m2 mAChR. Format: cell-based. Particulars: carbachol.
For the next assay, the system named is human m4 mAChR. The assay is described as follows: APP release by human 293 cells transfected with m4 mAChR. Format: cell-based. Particulars: carbachol.
A further assay relates to wild-type 293 cells. The assay is described as follows: APP release by wild-type (nontransfected) human 293 cells. It counts as cell-based. Particulars: wild-type cell lines; carbachol.
The next assay concerns the target T1, human m3 mAChR (Homo sapiens, UniProt P20309).
T1 construct: expressed in transfected cells; m3 200,000 receptors per cell
It counts as cell-based.

Assay [3] deals with T2, PC-12 bradykinin receptors (Rattus norvegicus, UniProt P25023).
T2 construct: functional APPs secretion
T2 sequence (P25023 1-396): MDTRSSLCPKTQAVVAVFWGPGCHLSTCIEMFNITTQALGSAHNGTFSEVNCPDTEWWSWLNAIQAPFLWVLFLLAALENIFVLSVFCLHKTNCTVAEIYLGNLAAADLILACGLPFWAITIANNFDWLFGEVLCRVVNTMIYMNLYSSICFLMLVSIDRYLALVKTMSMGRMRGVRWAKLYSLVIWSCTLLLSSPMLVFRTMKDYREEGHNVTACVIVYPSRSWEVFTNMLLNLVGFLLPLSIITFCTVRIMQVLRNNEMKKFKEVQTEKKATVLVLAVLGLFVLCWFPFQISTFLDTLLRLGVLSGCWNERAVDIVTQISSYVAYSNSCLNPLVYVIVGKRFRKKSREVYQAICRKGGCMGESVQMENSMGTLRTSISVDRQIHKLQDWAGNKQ
Nature of the assay: Secretion of soluble APP (APPs) by PC-12 cells via bradykinin receptors. It counts as cell-based. The procedure: PC-12 cell lines were obtained from American Type Culture Collection (CRL 1721) and grown in Dulbecco's modified Eagle's medium supplemented with 10% horse serum and 2.5% fetal bovine serum at 37° C. under a 5% carbon dioxide atmosphere. Cells were plated on collagen-coated culture dishes. For differentiation into the neuronal phenotype, 50 ng/ml nerve growth factor was added 24 hours after plating and differentiation was verified after three days by neurite outgrowth. Experiments were conducted with subconfluent monolayers approximately five days after plating.
Media were removed from culture dishes; cells were washed twice with serum-free N2 medium and experiments were done at 37° C. on a hot plate in serum-free N2 medium. Media were removed after incubation periods, desalted on sephadex G-25 columns with water as eluent, lyophilized and resuspended in 100 μl sample butter, and boiled for five minutes. Experiments were carried out in triplicate culture dishes and were repeated three to six times.
Cells were treated with 10 μM bradykinin or with vehicle (control) and secretion of APP was assessed over time, using Western blot and densitometry. […] Membranes were blocked, and probed with monoclonal antibody 22C11. Membranes were washed, and incubated with anti-mouse IgG conjugated to horseradish peroxidase. Bands were visualized with enhanced chemiluminescence using pre-flashed (linear) x-ray films. For densitometric analysis, bands were scanned with a Pharmacia LKB UltroScan XL laser densitometer set at 40 μm vertical interval size and […] horizontal slit width. Data were normalized to vehicle-treated controls which were always run within the same blots.

The next assay has as its target T3, human m1 mAChR (Homo sapiens, UniProt P11229).
T3 sequence (P11229 1-460): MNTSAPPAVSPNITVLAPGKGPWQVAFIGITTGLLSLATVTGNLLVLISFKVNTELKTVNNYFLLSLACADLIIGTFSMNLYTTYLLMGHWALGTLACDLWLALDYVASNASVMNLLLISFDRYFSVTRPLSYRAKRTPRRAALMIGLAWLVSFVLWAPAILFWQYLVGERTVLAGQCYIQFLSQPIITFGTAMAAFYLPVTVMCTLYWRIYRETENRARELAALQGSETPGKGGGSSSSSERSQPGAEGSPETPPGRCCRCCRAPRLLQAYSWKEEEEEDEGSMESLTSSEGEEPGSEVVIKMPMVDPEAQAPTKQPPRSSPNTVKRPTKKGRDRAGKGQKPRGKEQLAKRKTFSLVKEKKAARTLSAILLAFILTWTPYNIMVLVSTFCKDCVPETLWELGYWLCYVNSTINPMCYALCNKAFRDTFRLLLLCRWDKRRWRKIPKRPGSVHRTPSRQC

The mark [4] stands for this setting: stimulation with carbachol, Western blot.

Ends that are not written are not given here.

T1 sequence (P20309 whole entry): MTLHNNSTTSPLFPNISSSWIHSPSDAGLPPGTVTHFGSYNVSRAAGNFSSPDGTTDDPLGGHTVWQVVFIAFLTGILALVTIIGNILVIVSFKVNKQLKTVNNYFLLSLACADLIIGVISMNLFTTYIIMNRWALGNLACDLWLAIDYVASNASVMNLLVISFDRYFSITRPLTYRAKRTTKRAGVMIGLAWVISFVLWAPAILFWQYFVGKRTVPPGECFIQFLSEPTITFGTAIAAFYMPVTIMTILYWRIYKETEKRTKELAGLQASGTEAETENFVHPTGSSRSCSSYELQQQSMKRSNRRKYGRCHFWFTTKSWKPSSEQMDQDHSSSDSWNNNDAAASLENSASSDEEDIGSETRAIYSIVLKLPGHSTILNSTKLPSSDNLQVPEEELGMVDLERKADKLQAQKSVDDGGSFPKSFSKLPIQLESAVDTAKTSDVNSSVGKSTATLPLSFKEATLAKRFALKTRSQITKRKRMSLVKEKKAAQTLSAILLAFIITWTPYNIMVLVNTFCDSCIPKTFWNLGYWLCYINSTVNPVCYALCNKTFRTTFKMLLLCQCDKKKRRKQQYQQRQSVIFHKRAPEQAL

With `CNc1ccc2oc(C[C@H]3O[C@@]4(CC[C@H]3C)O[C@H]([C@H](C)C(=O)c3ccc[nH]3)[C@H](C)C[C@H]4C)nc2c1C(=O)O` [A23187], the “stimulation of basal APP release by calcium ionophore alone” value in assay [1] (10 μm ionophore, cell line not stated in text (FIG. 1B)) is “failure”.
As for `NCCc1c[nH]c2ccc(O)cc12` [Serotonin], the “release of N-terminal non-amyloidogenic APP derivatives” value in assay [2] is “increases release”.
For the compound `C[N+](C)(C)CCOC(N)=O` [carbachol], the “basal release of APP fragments, effect of agonist” value (“basal release of APP fragments” for short) with human m2 mAChR is given as “not stimulated”. In addition, the “basal release of APP fragments” value in the assay on human m4 mAChR is “not stimulated”. For the same compound, in the assay on wild-type 293 cells, the “basal release of APP fragments” value was “not stimulated”. In assay [1] (setting [4]), the “128 kD APP derivative secreted into the culture medium” value is given as “increase”, the “abundance of cell-associated 115 kD APP” value is given as “remained unaffected” and the “abundance of cell-associated 141 kD APP” value is “decreased”.
In the case of `CN[C@@H]1C[C@H]2O[C@@](C)([C@@H]1OC)n1c3ccccc3c3c4c(c5c6ccccc6n2c5c31)C(=O)NC4` [staurosporine], the “effect on receptor-activated (carbachol-induced) APP release” value on human m3 mAChR and at human m1 mAChR was “inhibited” each time. Further, the “effect on bradykinin-induced APPS secretion” value in assay [3] (PC-12 cells, added with bradykinin) was “inhibited”.
RPPGFSPFR [bradykinin]: the “secretion of soluble N-terminal APP derivatives (APPS) into the medium” value in assay [3] (NGF-differentiated PC-12 cells, 10 μM bradykinin vs vehicle) is “increases”. In addition, the “APPs secretion in undifferentiated PC-12 cells” value in assay [3] (PC-12 cells without nerve growth factor) was “stimulates”.
